What was measured:
[1] = system: human embryonic stem cell line H1; test: Real-time PCR gene expression, timing of BMP inhibition at stage 3 (Example 3); format: cell-based
Protocol: Cells of the human embryonic stem cell line H1 at various passages (passage 40 to passage 52) were seeded as single cells at a density of 100,000 cells/cm^2 on MATRIGEL™ (1:30 dilution) coated dishes in mTesr™1 media supplemented with 10 μM of Y27632. Forty eight hours post seeding, cultures were differentiated into cells of the pancreatic endocrine lineage as follows: • a. Stage 1 (Definitive Endoderm (DE)−4 days): Prior to start of DE, the cells were washed and incubated with incomplete PBS (no Mg or Ca) for 30 seconds followed by incubation in S1 media. Human embryonic stem cells cultured as single cells on MATRIGEL™-coated dishes were treated for one day with MCDB-131 medium supplemented with 0.1% fatty acid-free BSA, 0.0012 g/ml sodium bicarbonate, 1× GLUTAMAX™, 2.5 mM D-Glucose, 100 ng/ml GDF8, 1.5 μM MCX compound (GSK3B inhibitor). Cells were then treated for […] (days 2-4) with MCDB-131 medium supplemented with 0.1% fatty acid-free BSA, 0.0012 g/ml sodium bicarbonate, 1× GLUTAMAX™, 2.5 mM glucose, and 100 ng/ml GDF8. • b. Stage 2 (Primitive gut tube−3 days): Stage 1 cells were treated for three days with MCDB-131 medium supplemented with 0.1% fatty acid-free BSA, 0.0012 g/ml sodium bicarbonate, 1× GLUTAMAX™, 2.5 mM D-Glucose, and 50 ng/ml FGF7. • c. Stage 3 (Foregut−3 days): Stage 2 cells were treated with MCDB-131 medium supplemented with a 1:200 dilution of ITS-X, 2.5 mM Glucose, 1× GLUTAMAX™, 0.0015 g/ml sodium bicarbonate, 2% fatty acid-free BSA, 0.25 μM SANT-1, 20 ng/ml of Activin-A, 2 μM RA, 50 ng/ml FGF7, 100 nM LDN-193189 (on day 1 only or for the duration of stage 3), and 200 nM TPB. In some cultures, LDN-193189 was removed from stage 3. • d. Stage 4 (Pancreatic foregut precursor-3 days): Stage 3 cells were treated with MCDB-131 medium supplemented with a 1:200 dilution of ITS-X, 2.5 mM Glucose, 1× GLUTAMAX™, 0.0015 g/ml sodium bicarbonate, 2% fatty acid-free BSA, 0.25 μM SANT-1, 100 nM TPB, 200 nM LDN-193189, 2 μM ALk5 inhibitor, and 100 nM CYP26A inhibitor for three days. • e. […]

[2] = system: human embryonic stem cell line H1; test: Real-time PCR gene expression, dose of BMP inhibitor at S4 (Example 5); format: cell-based; details: 50 nM or 100 nM at days 1, 2, 3, or 4 of S4
Protocol: Cells of the human embryonic stem cell line H1 at various passages (passage 40 to passage 52) were seeded as single cells at a density of 100,000 cells/cm^2 on MATRIGEL™ (1:30 dilution) coated dishes in mTesr™1 media and 10 μM of Y27632. Forty eight hours post seeding, cultures were differentiated into pancreatic endocrine lineage as follows: • a. Stage 1 (Definitive Endoderm (DE)−4 days): Prior to start of DE, the cultures were washed and incubated with incomplete PBS (no Mg or Ca) for 30 seconds followed by addition of the stage 1 media. Human embryonic stem cells cultured as single cells on MATRIGEL™-coated dishes were treated with MCDB-131 medium supplemented with 0.1% fatty acid-free BSA, 0.0012 g/ml sodium bicarbonate, 1× GLUTAMAX™, 2.5 mM D-Glucose, 100 ng/ml GDF8, and 1 μM MCX compound (GSK3B inhibitor) for one day. Cells were then treated with MCDB-131 medium supplemented with 0.1% fatty acid-free BSA, 0.0012 g/ml sodium bicarbonate, 1× GLUTAMAX™, 2.5 mM glucose, and 100 ng/ml GDF8 for days 2-4. • b. Stage 2 (Primitive gut tube−3 days): Stage 1 cells were treated with MCDB-131 medium supplemented with 0.1% fatty acid-free BSA, 0.0012 g/ml sodium bicarbonate, 1× GLUTAMAX™, 2.5 mM D-Glucose, and 50 ng/ml FGF7 for three days. • c. […]

[3] = at stage 4, 100 nM LDN-193189 on first day of stage 3, removed at days 2-3

## c1ccc2c(-c3cnn4cc(-c5ccc(N6CCNCC6)cc5)cnc34)ccnc2c1 [LDN-193189]
[1]; at S3-S4, LDN-193189 retained for the duration of stage 3
  expression of SOX2: very high expression
[1]; [3]
  CDX2 and SOX2 expression: decreasing
  expression of NGN3 and NeuroD: significantly boosted
[2]
  expression of endocrine markers: prolong
[2]; at S4-S5
  expression of SOX2: low expression

From patent publication US12215354B2, “Differentiation of human embryonic stem cells into single hormonal insulin positive cells” (Janssen Biotech, Inc., priority 2011, dated 2025)
